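Compound exposure: 48 hours, 5 concentrations, 96-well plates. At the GI50, growth is halved. TGI marks complete inhibition of growth.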
Assays:
Test in all cases: DTP human tumour cell line panel, 48 h
[1] = system: UACC-62 melanoma
[2] = system: NCI-H522 lung
[3] = system: A498 renal
[4] = system: SNB-75 CNS
[5] = system: NCI/ADR-RES ovarian
[6] = system: MDA-MB-435
[7] = system: UACC-257 melanoma
[8] = system: KM12 colon
[9] = system: NCI-H226 lung
[10] = system: MDA-N

| SMILES | TGI [1] [µM] | TGI [2] [µM] | TGI [3] [µM] | TGI [4] [µM] | TGI [5] [µM] | TGI [6] [µM] | TGI [7] [µM] | TGI [8] [µM] | TGI [9] [µM] | TGI [10] [µM] | GI50 [1] [µM] | GI50 [6] [µM] |
| --- | --- | --- | --- | --- | --- | --- | --- | --- | --- | --- | --- | --- |
| CC/C(N)=N\NC(=O)OC(C)(C)C | > 100 | > 100 | > 100 | > 100 | > 100 | > 100 | > 100 | > 100 | > 100 | > 100 | – | – |
| O=S(=O)(O)c1cc(S(=O)(=O)O)c2c(N=Nc3ccc(N=Nc4ccccc4)cc3)c(O)ccc2c1 | > 100 | > 100 | > 100 | > 100 | > 100 | > 100 | > 100 | > 100 | > 100 | > 100 | – | – |
| Cc1ccccc1NC(=O)Cc1csc(N=Nc2c(O)[nH]c3ccccc23)n1 | > 100 | 41.2 | > 100 | > 100 | > 100 | > 1 | > 100 | > 100 | > 100 | > 100 | – | – |
| O=C(N/N=C\c1ccc([N+](=O)[O-])s1)c1ccncc1 | 15.7 | 19.7 | 53 | > 100 | > 91.1 | > 55 | 31.8 | 26.8 | 17.7 | > 55.8 | – | – |
| CC(=O)NC1C(OCc2ccccc2)OC(CO)C(O)C1OCC(=O)N[C@@H](C)C(=O)N[C@H](CCC(=O)NCCCNc1ccc([N+](=O)[O-])c2[nH]c3ccccc3c(=O)c12)C(N)=O (some centres not stated) | > 100 | > 100 | > 100 | > 100 | > 100 | > 100 | > 100 | > 100 | 65.8 | > 100 | – | – |
| CCCCCCCCCCCCO[P+](=O)OCCCCCCCCCCCC | > 100 | > 100 | > 100 | > 100 | > 100 | > 100 | 62.2 | 72.2 | > 100 | > 100 | – | – |
| O=C(NCCCCCN1CCC2(CCCCC2)CC1)C(C1CCCCC1)C1CCCCC1 | 7.2 | 9.01 | 9.42 | 9.48 | 14.9 | 3.74 | 3.43 | 13 | 11.8 | 3.51 | – | – |
| Cc1csc(-n2c(C)nc3cc(Cl)ccc3c2=O)n1 | > 100 | 60.6 | > 100 | > 100 | > 100 | > 100 | > 100 | > 100 | > 100 | > 100 | – | – |
| C=C1C(=O)OC2C3OC(C)(CCC(O)C3COC(C)=O)CC(OC(=O)/C(=C/C)COC(C)=O)C12 (configuration not stated) | 0.971 | 0.0749 | 3.05 | 18.1 | 11 | 12.6 | 1.96 | 3.45 | 8.4 | 0.645 | – | – |
| O=c1[nH]nc(-c2ccccc2)n1-n1cnnc1 | > 100 | > 100 | > 100 | > 100 | > 100 | > 100 | > 100 | > 100 | > 100 | > 100 | – | – |
| C=CC[C@H](N=C(SC)SC)C(=O)N1C(=O)N(C)[C@@H](C)[C@H]1c1ccccc1 | > 100 | 54.1 | > 100 | > 100 | > 100 | > 100 | > 100 | > 100 | > 100 | > 100 | – | – |
| CC(C)NC(=O)OCc1c(COC(=O)NC(C)C)c(-c2cc[n+](COC(=O)C3CCCCC3)cc2)n2c1CCC2 | > 100 | > 100 | > 100 | > 100 | > 100 | > 100 | > 100 | > 100 | > 100 | > 100 | – | – |
| N#Cc1nc(-c2cccc(-c3nc(C#N)c(N)o3)n2)oc1N | > 100 | > 100 | > 100 | > 100 | > 100 | > 100 | > 100 | > 100 | > 100 | > 100 | – | – |
| CCOc1cc2c(cc1O)C(N)C[C@@H]1[C@@H]2CC[C@]2(C)[C@@H](O)CC[C@@H]12 (some centres not stated) | > 100 | > 100 | > 100 | 95.4 | > 100 | 52.4 | > 100 | > 100 | > 100 | > 100 | 18.7 | 16.2 |
| CCNC(=S)N/N=C(\C)c1cccc(C)n1 | 41.3 | 26 | 45.3 | > 100 | > 100 | > 100 | > 100 | > 100 | 47.9 | > 100 | – | – |
| Nc1cc2c3c(cccc3c1)C(=O)N(c1ccc(OCCN3CCCC3)cc1)C2=O | 33.3 | 30.7 | 91.5 | 25.3 | > 57 | 42.4 | 31.5 | 31.1 | 33.2 | 34.7 | – | – |
| CCOC(=O)CCC(NC(=O)c1ccc(Nc2nc3ccccc3nc2C(=O)OCC)cc1)C(=O)OCC (configuration not stated) | 9.15 | 16.7 | 18.6 | 6.16 | 27 | > 100 | > 100 | > 100 | 12.2 | > 100 | – | – |
| O=c1cc(N2CCCC2)[nH]c(=O)n1-c1ccc(Cl)cc1 | > 100 | > 100 | > 100 | > 100 | > 100 | > 100 | > 100 | > 100 | > 100 | > 100 | – | – |
| CC[C@@]1(O)C(=O)OCc2c1cc1n(c2=O)Cc2c-1nc1ccccc1c2/C=N\NC(=O)C(N)Cc1c[nH]c2ccccc12 (some centres not stated) | 0.712 | 32.3 | 2.76 | 1.83 | > 35.6 | > 87.9 | > 38 | > 42.7 | 11.9 | > 100 | – | – |

Source: PubChem BioAssay (NCI)
